According to PMC3429506, “Screening for Novel LRRK2 Inhibitors Using a High-Throughput TR-FRET Cellular Assay for LRRK2 Ser935 Phosphorylation” (PLoS ONE, 2012):

Assays:
[1] = target: T1, LRRK2 A2016T/G2019S (Homo sapiens, UniProt Q5S007, A2016T/G2019S); test: Immunoprecipitation/Western analysis of LRRK2 phosphorylation in T-REx HEK293 cells expressing inhibitor desensitizing mutant; assay type: cell-based; settings: for effect of desensitizing mutation A2016T/G2019S on compound-induced dephosphorylation (IP-Western): 20 µM, Figure 6 IRM
T1 construct: expressed in transfected cells
T1 sequence (Q5S007 whole entry A2016T/G2019S): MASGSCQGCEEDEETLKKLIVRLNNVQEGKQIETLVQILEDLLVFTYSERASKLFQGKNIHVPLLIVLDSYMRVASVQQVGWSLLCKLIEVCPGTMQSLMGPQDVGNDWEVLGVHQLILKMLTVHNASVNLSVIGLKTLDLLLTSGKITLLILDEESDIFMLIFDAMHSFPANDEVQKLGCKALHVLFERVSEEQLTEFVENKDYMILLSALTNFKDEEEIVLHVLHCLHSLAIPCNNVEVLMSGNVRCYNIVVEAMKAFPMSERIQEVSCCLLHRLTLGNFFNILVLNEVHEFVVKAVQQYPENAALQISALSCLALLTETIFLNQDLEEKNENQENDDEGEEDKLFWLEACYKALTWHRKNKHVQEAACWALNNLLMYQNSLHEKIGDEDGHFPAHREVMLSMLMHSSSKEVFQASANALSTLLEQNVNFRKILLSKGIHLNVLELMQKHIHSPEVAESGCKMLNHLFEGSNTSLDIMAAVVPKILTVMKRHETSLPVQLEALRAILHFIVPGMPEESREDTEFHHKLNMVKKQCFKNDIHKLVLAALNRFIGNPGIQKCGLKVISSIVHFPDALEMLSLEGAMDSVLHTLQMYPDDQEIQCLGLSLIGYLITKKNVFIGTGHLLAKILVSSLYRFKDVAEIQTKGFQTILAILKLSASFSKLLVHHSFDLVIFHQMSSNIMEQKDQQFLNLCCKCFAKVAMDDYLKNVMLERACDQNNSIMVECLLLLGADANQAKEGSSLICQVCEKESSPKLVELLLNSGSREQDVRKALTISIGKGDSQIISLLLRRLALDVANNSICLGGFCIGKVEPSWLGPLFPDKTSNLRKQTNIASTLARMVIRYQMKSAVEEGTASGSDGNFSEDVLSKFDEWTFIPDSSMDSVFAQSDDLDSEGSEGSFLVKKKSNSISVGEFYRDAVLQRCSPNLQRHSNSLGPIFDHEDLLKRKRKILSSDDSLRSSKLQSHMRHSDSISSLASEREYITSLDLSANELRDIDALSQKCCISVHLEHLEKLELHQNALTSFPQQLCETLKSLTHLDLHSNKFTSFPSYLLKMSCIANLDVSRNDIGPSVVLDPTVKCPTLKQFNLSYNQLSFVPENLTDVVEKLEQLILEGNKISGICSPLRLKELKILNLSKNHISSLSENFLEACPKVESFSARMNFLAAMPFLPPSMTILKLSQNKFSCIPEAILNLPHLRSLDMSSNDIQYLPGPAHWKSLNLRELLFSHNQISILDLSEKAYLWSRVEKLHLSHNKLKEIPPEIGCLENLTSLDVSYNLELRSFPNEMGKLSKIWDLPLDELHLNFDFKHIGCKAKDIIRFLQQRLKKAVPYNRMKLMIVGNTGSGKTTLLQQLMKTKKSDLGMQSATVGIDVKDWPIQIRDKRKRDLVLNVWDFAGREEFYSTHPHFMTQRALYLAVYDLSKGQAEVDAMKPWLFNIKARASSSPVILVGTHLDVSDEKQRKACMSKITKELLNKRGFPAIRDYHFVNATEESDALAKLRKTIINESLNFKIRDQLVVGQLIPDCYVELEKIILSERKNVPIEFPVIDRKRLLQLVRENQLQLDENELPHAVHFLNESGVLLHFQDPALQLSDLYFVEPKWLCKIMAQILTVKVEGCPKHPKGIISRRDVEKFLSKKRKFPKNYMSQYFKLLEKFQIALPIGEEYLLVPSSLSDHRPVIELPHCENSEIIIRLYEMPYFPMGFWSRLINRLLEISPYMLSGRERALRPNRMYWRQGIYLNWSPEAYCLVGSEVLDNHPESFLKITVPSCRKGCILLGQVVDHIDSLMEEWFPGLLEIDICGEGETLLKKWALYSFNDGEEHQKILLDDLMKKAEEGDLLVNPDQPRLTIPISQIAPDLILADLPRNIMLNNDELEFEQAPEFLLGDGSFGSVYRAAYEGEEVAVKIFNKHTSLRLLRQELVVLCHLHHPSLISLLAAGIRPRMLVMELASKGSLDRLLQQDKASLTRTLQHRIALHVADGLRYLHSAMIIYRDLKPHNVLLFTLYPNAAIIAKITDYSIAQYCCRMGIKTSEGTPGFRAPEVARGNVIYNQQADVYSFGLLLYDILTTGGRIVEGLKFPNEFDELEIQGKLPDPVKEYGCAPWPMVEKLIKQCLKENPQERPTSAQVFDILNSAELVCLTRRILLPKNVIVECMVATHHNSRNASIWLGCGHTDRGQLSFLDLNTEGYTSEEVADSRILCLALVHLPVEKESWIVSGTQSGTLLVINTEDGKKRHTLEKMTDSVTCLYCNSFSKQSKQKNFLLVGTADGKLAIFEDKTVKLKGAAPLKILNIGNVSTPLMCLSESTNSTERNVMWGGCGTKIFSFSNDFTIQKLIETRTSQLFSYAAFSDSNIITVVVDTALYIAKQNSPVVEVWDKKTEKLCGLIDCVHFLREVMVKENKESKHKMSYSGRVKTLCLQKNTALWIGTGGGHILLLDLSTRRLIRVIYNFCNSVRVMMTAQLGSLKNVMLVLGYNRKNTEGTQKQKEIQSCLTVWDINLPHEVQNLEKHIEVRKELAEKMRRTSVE
Protocol: (§1) Immunoblot analysis: BacMam LRRK2-GFP transduced U-2 OS or SH-SY5Y cells (10^7 cells) were left untreated or treated with 3 µM LRRK2-IN-I for 90 min. For lysate preparation, the cells were washed once with ice-cold PBS and lysed by addition of ice-cold lysis buffer (20 mM Tris-HCl, pH 7.4, 1% NP-40, 5 mM EDTA, 5 mM NaF, 150 mM NaCl, and 1∶100 of protease and phosphatase inhibitor cocktails). The lysate was cleared of debris by centrifugation. Equal amount of total protein was loaded onto each lane for SDS-PAGE (3–8% Tris Acetate). The proteins were transferred onto nitrocellulose membrane using the iBLOT® dry blotting system (Life Technologies) according to manufacturer’s protocol. The membranes were blocked and incubated with a primary antibody against LRRK2 (Cell Signaling Technologies), followed by incubation with alkaline phosphatase-conjugated secondary antibody (WesternBreeze® chromogenic Kit, Life Technologies). The blot was developed by using the chromogenic BCIP/NBT substrate (WesternBreeze® chromogenic Kit, Life Technologies). […] Two days post induction, cells were treated for 90 minutes in the presence of 20 µM of compound or DMSO vehicle control. Cells were rapidly lysed in ice cold lysis buffer 50 mM Tris/HCl, pH 7.5, 1 mM EGTA, 1 mM EDTA, […] 1 mM sodium orthovanadate, 10 mM sodium beta-glycerolphosphate, 50 mM NaF, 5 mM sodium pyrophosphate, 0.27 M sucrose, 1 mM benzamidine and 2 mM phenylmethanesulphonylfluoride (PMSF) and one tablet each complete protease inhibitor and PhosSTOP phosphatase inhibitor (Roche) and was supplemented with 1% (v/v) Triton X-100. GFP-LRRK2 was immunoprecipitated with GFP nanotrap beads (ChromoTek). Immunecomplexes were washed twice with lysis buffer supplemented with 300 mM NaCl and once with Buffer A (50 mM Tris/HCl, pH 7.5, 50 mM NaCl, 0.1 mM EGTA and 0.1% (v/v) 2-mercaptoethanol, and 0.27 M sucrose).

[2] = target: T2, GFP-LRRK2 G2019S (Homo sapiens, UniProt Q5S007, G2019S); test: Immunoprecipitation/Western analysis of LRRK2 phosphorylation at Ser910, Ser935, Ser955, Ser973 in HEK293 T-REx GFP-LRRK2 G2019S cells; assay type: cell-based; settings: for effect on phosphorylation of Ser910, Ser935, Ser955 and Ser973 (IP-Western): 20 µM, 90 min, HEK293 GFP-LRRK2 G2019S, Figure 6
T2 construct: expressed in transfected cells
T2 sequence (Q5S007 whole entry G2019S): as the sequence (Q5S007 whole entry A2016T/G2019S) above, with T2016A counted along it
Protocol: as §1

[3] = target: T3, LRRK2 G2019S (Homo sapiens, UniProt Q5S007, G2019S); test: TR-FRET cellular assay for LRRK2 Ser935 phosphorylation, SH-SY5Y cells, BacMam LRRK2-GFP G2019S (incl. Tocriscreen Mini library screen and follow-up); assay type: cell-based; parameters: This high-throughput assay utilizes cells expressing full-length human LRRK2 with a C-terminal GFP tag (LRRK2-GFP); host or cells: SH-SY5Y cells transduced with BacMam; settings: for %Inhibition Initial screen: Tocriscreen Mini library screen, 20 µM, relative to LRRK2-IN-1 control; for Cellular TR-FRET Assay Max % Inhibition: 90 min; for IC50: three independent experiments
T3 sequence (Q5S007 whole entry G2019S): as the sequence (Q5S007 whole entry A2016T/G2019S) above, with T2016A counted along it
Protocol: (§2) U-2 OS cells are maintained in growth medium (McCoy’s 5A supplemented with 10% dialyzed FBS (dFBS), 10 mM HEPES, 0.1 mM NEAA, 1 mM Sodium Pyruvate, and 100 U/mL Penicillin/100 µg/mL Streptomycin). HEK293T cells are maintained in DMEM with 10% dFBS, 10 mM HEPES, 0.1 mM NEAA and 100 U/mL Penicillin/100 µg/mL Streptomycin. SH-SY5Y cells are maintained in DMEM/F-12 medium supplemented with 10% dFBS and 100 U/mL Penicillin/100 µg/mL Streptomycin. […] GIBCO® human neural stem cells (hNSCs) were propagated as an adherent culture in StemPro® NSC SFM according to the manufacturer’s recommended protocol (Life Technologies). For BacMam transduction of U-2 OS and HEK293T, cells were harvested, mixed with various amounts of BacMam LRRK2-GFP reagent (v/v) and plated onto 6-well plates. […] Cells were assayed in 384-well format (∼20,000 cells/well) 48 hours post-transduction as above.
(§3) Transduced cells in the 384-well assay plate were incubated with indicated inhibitors (5X, 5 µL/well) for 60 to 90 minutes. During this time, 6 X lysis buffer (Life Technologies) was supplemented with 30 nM Tb-labeled anti-LRRK2 pSer935 antibody and both protease and phosphatase inhibitor cocktails (Sigma). The complete 6 X lysis buffer was added to each well (5 µL/well) and the plates were incubated at room temperature in the dark for 2 hours. […] A sigmoidal dose-response equation with varying slope was used to fit the data and generate IC50 values. Z′-factor values were calculated as: Z′-factor = 1 - [(3 × stdevno virus +3 × stdevmaxvirus)/(avgmaxvirus – avgno-virus)]. The IC50 values reported in Table 1 are the averaged numbers from three independent experiments.
40 nL of 10 mM Tocris library compounds in DMSO were dispensed into each well of the assay plate by the ECHO system. Equal volumes of DMSO were dispensed into the control wells. Cells were incubated with compounds for 90 to 120 min prior to cell lysis and detection as described above. The percent inhibition is calculated as: [(average emission ratios of DMSO control wells – average emission ratios of compound wells)/(average emission ratios of DMSO control wells – average emission ratios of LRRK2-IN-1 treated wells)] * 100. For the dose-response follow-up studies, fresh compound DMSO stock solutions were prepared from powder. […] Z′-factor value was calculated as: Z′-factor = 1 - [(3 × stdevLRRK2-IN-1+3 × stdevDMSO)/(avgDMSO – avgLRRK2-IN-1)]. The IC50 values reported in Table 2 are the averaged numbers from three independent experiments for both cellular and biochemical TR-FRET assays and one representative result of two independent experiments for the cytotoxicity assay.

[4] = target: T3, LRRK2 G2019S; test: In vitro biochemical LRRK2 TR-FRET activity assay; settings: for IC50: LRRK2 G2019S, ATP 134 µM (Km,app), LRRKtide substrate, three independent experiments, read-out: Biochemical LRRK2 assay IC50 +/- SD
Protocol: The Biochemical LRRK2 TR-FRET activity assay was performed according to the manufacture recommended assay protocol (Life Technologies). […] After incubation at room temperature for 1 hour, the kinase reactions were stopped by addition of 10 µL of 20 mM EDTA and 4 nM Tb-anti-pERM (pLRRKtide) antibody in TR-FRET dilution buffer (Life Technologies). After a 30 minute incubation at room temperature, TR-FRET measurements were obtained on a BMG PHERAstar plate reader using LanthaScreen® filters and settings. A 16 point, 2-fold dilution series of each compound was tested in triplicate at each concentration and assays were also performed in triplicate.

[5] = system: SH-SY5Y cells expressing LRRK2-GFP G2019S; test: Cytotoxicity assay (resazurin-based cell viability); settings: read-out: Cytotoxicity Assay IC50; same conditions as TR-FRET follow-up; one representative of two experiments
[6] = target: T4, LRRK2 wild-type (Homo sapiens, UniProt Q5S007); test: TR-FRET cellular assay for LRRK2 Ser935 phosphorylation, SH-SY5Y cells, BacMam LRRK2-GFP wild-type; assay type: cell-based; parameters: This high-throughput assay utilizes cells expressing full-length human LRRK2 with a C-terminal GFP tag (LRRK2-GFP); host or cells: SH-SY5Y cells transduced with BacMam; settings: WT, +/- SD, three independent experiments, * = partial inhibition, read-out: IC50, TR-FRET cell-based assay for Ser935 phosphorylation of LRRK2
T4 sequence (Q5S007 whole entry): as the sequence (Q5S007 whole entry A2016T/G2019S) above, with T2016A, S2019G counted along it
Protocol: as §2, §3

[7] = target: T3, LRRK2 G2019S; test: TR-FRET cellular assay for LRRK2 Ser935 phosphorylation, HEK293T cells, BacMam LRRK2-GFP G2019S; parameters: This high-throughput assay utilizes cells expressing full-length human LRRK2 with a C-terminal GFP tag (LRRK2-GFP); host or cells: HEK293T cells transduced with BacMam; settings: +/- SD, three independent experiments, * = partial inhibition, read-out: IC50, TR-FRET cell-based assay for Ser935 phosphorylation of LRRK2
Protocol: as §2, §3

[8] = target: T4, LRRK2 wild-type; test: TR-FRET cellular assay for LRRK2 Ser935 phosphorylation, U-2 OS cells, BacMam LRRK2-GFP wild-type; assay type: cell-based; parameters: This high-throughput assay utilizes cells expressing full-length human LRRK2 with a C-terminal GFP tag (LRRK2-GFP); host or cells: U-2 OS cells transduced with BacMam; settings: WT, +/- SD, three independent experiments, * = partial inhibition, read-out: IC50, TR-FRET cell-based assay for Ser935 phosphorylation of LRRK2
Protocol: as §2, §3

[9] = target: T3, LRRK2 G2019S; test: TR-FRET cellular assay for LRRK2 Ser935 phosphorylation, U-2 OS cells, BacMam LRRK2-GFP G2019S; assay type: cell-based; parameters: This high-throughput assay utilizes cells expressing full-length human LRRK2 with a C-terminal GFP tag (LRRK2-GFP); host or cells: U-2 OS, SH-SY5Y, HEK293T cells or human neural stem cells transduced with BacMam; settings: G2019S, +/- SD, three independent experiments, * = partial inhibition, read-out: IC50, TR-FRET cell-based assay for Ser935 phosphorylation of LRRK2
Protocol: as §2, §3

[10] = target: T4, LRRK2 wild-type; test: TR-FRET cellular assay for LRRK2 Ser935 phosphorylation, HEK293T cells, BacMam LRRK2-GFP wild-type; parameters: This high-throughput assay utilizes cells expressing full-length human LRRK2 with a C-terminal GFP tag (LRRK2-GFP); host or cells: HEK293T cells transduced with BacMam; settings: WT, +/- SD, three independent experiments, * = partial inhibition, read-out: IC50, TR-FRET cell-based assay for Ser935 phosphorylation of LRRK2
Protocol: as §2, §3

[11] = dose-response follow-up, SH-SY5Y G2019S
[12] = dose-response follow-up, SH-SY5Y G2019S, read-out: Cellular TR-FRET Assay IC50 +/-SD
[13] = SH-SY5Y, G2019S, +/- SD, * = partial inhibition, read-out: IC50, TR-FRET cell-based assay for Ser935 phosphorylation of LRRK2

SMILES | effect of desensitizing mutation A2016T/G2019S on compound-induced dephosphorylation (IP-Western) [1] | LRRK2 phosphorylation remaining, % of untreated G2019S ([1]; 293 cells, LRRK2 G2019S/A2016T) [%] | effect on phosphorylation of Ser910, Ser935, Ser955 and Ser973 (IP-Western) [2] | LRRK2 phosphorylation remaining, % of untreated G2019S ([2]; 293 cells, LRRK2 G2019S) [%] | %Inhibition Initial screen ([3]; SH-SY5Y G2019S) [%] | Cellular TR-FRET Assay Max % Inhibition [3, 11] [%] | IC50 [3, 12] [nM] | IC50 [4] [nM] | effect on LRRK2 activity in vitro ([4]; result in words) | IC50 [5] [nM] | IC50 [6] [nM] | IC50 [7] [nM] | IC50 [8] [nM] | IC50 [3, 13] [nM] | IC50 [9] [nM] | IC50 [10] [nM]
Cc1ccc(S(=O)(=O)/C=C/C#N)cc1 [Bay 11-7821] | did not appear to be changed | 50 | moderately reduced phosphorylation of all four residues | 50 | 85.5 | 94 | 4000 | > 100000 | did not repress LRRK2 activity in vitro | 20000 |  |  |  |  |  | 
O=C1Nc2ccc(I)cc2/C1=C/c1cc(Br)c(O)c(Br)c1 [GW5074] |  |  |  |  |  |  |  |  |  |  | > 20000 | 280 | > 20000 | > 20000 | 470 | > 20000
Cn1cc(/C=C2\C(=O)Nc3cccnc32)c2ccccc21 [GW 441756] | rescued phosphorylation |  | inhibited phosphorylation of Ser910, Ser935, Ser955 and Ser973 |  | 69.7 | 72 | 2200 | 320 |  | > 20000 |  |  |  |  |  | 
Cc1cncc2cccc(S(=O)(=O)N3CCCNC[C@@H]3C)c12 [H-1152] |  |  |  |  |  |  |  |  |  |  | 1660 | 1380 | 3280 | 770 | 890 | 2940
O=C1C(SCCO)=C(SCCO)C(=O)c2ccccc21 [NSC 95397] |  |  | moderately reduced phosphorylation of all four residues |  | 76.1 | 80 | 1300 | 15000 |  | 7800 |  |  |  |  |  | 
O=C1NC(=O)c2c1c1c3ccccc3n3c1c1c2c2ccccc2n1C1CCC3O1 [SB 218078] | did not appear to be changed |  | moderately reduced phosphorylation of all four residues |  | 55.3 | 54 | 9500 |  |  | > 20000 |  |  |  |  |  | 
